Non-standard residues stand in square brackets, D forms with d. Residues, ends and D or L forms follow the SMILES beside them. *: point of attachment. Phenylacetyl(2,3,4,5,6-F5) = O=C(Cc1c(F)c(F)c(F)c(F)c1F)*; Phe(F5) = N[C@@H](Cc1c(F)c(F)c(F)c(F)c1F)C(=O)O; Phe(4-Cl) = N[C@@H](Cc1ccc(Cl)cc1)C(=O)O; hArg = N=C(N)NCCCC[C@H](N)C(=O)O; 12Ado = NCCCCCCCCCCCC(=O)O; Nle = CCCC[C@H](N)C(=O)O; Orn = NCCC[C@H](N)C(=O)O; Abu = CC[C@H](N)C(=O)O
Legend:
[1] = system: NCI-N87 stomach cancer cells; experiment: In vitro cell viability (CellTiter 96), N87; format: cell-based, human; settings: Table 3B; 5 μM for 72 H; MIA-602 = 1
Description: (§1) The inhibitory effects of the various synthesized GHRH antagonists were tested in cell proliferation assays in various human cancer cell lines including stomach cancer (KATOIII, N87), colon cancer (HT-29), urothelial cancer (J82, RT4), pancreatic cancer (PANC-1, CFPAC-1), prostatic cancer (PC3), breast cancer (MX-1, HCC1806), ovarian cancer (SK-OV-3, OVCAR-3) and lung cancer (HCC827, H460).
(§2) Cell culture. Human cancer cell lines including pancreatic (PANC-1 and CFPAC-1), lung (HCC827 and H460), stomach (NCI-N87 and KATOIII), urothelial (J82, RT4), prostatic (PC3), breast (MX-1 and HCC 1806), colorectal (HT-29), and ovarian (SK-OV-3 and OVCAR-3) were obtained from the American Type Culture Collection (ATCC) and cultured at 37° C. in a humidified 95% air/5% CO2 atmosphere in the medium recommended by ATCC.
(§3) In vitro cell viability. Cell viability was analyzed as follows: cancer cells including pancreatic (PANC-1 and CFPAC-1), lung (HCC827 and H460), stomach (NCI-N87 and KATOIII), urothelial (J82, RT4), prostatic (PC3) and breast (MX-1 and HCC 1806), colorectal (HT-29) and ovarian (SK-OV-3 and OVCAR-3) were grown on 96 well plates to ˜60% confluence, the cells were starved for 24 h in culture medium containing 0.5% FBS. Cells were then treated with GHRH antagonists MIA602 AVR compounds at concentrations of 1, 2.5 or 5 μM, or vehicle (0.1% DMSO) in quintuplicates for 72 hours. The medium was replaced every 48 hours. Cell viability was measured using CellTiter 96 aqueous one solution kit (Promega). Inhibitory effects of tested AVR compounds in comparison to that of MIA602 are presented as inhibitory potency.
(§4) Inhibitory effects of selected AVR compounds in comparison to that of MIA602 are presented as inhibitory potency (e.g., percentage of inhibition). […] The cell lines tested including lung cancer HCC827 (FIG. 2A), pancreatic cancer CFPAC-1 (FIG. 2B), stomach cancer N87 (FIG. 2C), colon cancer HT-29 (FIG. 2D), breast cancers MX-1 and HCC1806 (FIGS. 2 E, F). Based on the results of cell proliferation assay after cancer cells were treated with antagonist at concentration of 5 μM for 72H, the relative inhibitory potency of AVR antagonists in comparison to MIA-602 is summarized in Table 3 A and B. Over 60 AVR compounds were tested in 12 cancer cell lines.
(§5) Based on the results of cell proliferation assay after cancer cells were treated with antagonist at concentration of 5 µM for 72H, * at concentration of 2 µM for 72 H.

HT-29 colon cancer cells = experiment: In vitro cell viability, HT-29; format: cell-based, human; settings: Table 3B; 5 μM for 72 H; MIA-602 = 1
Description: as §1, §2, §3, §4, §5

[2] = system: lung cancer HCC827 xenograft; experiment: Xenograft tumor growth in nude mice, HCC827; format: in vivo; settings: Table 4B, Lung Ca HCC827, 7 weeks, 5 μg/day s.c.; for % Inhibition: vs control
Description: The peptides' activity was compared with GHRH antagonist MIA-602. All statistical analyzses were performed from comparing GHRA antagonists to non-treated tumor (control).
Peptides and chemicals. GHRH antagonists MIA-602 and AVR-GHRH antagonists (see Table 2 above) were synthesized by solid phase methods and purified by HPLC. The peptides were dissolved in DMSO and further diluted in 10% 1,2-propanediol. The final concentration of peptides was 50 µg/ml in 10% 1,2-propanediol containing 0.1% of DMSO.
as §2, with “(NCI-N87), prostate” for “(NCI-N87 and KATOIII), urothelial (J82, RT4), prostatic”, “brest” for “breast”, “HCC-1806),” for “HCC 1806),”
Xenograft models of human cancers in nude mice. Female athymic (NCr nu/nu) nude mice, 5- to 6-weeks-old, obtained from the Envigo labs (Tampa, Fla.), were housed in laminar airflow cabinets under pathogen-free conditions with a 12-h light/12-h dark schedule, and were fed autoclaved standard chow and water. To generate mice with xenografted tumors, tumor xenografts were initiated by subcutaneous (s.c.) injection of 107 human cancer cells into female nude mice. After about 4 weeks the resulting tumors were dissected and collected after removing necrosis tissues. The tumors were then cut into particles with size of 3 mm3 and transplanted s.c. by trocar needle into experimental animals. When tumors grew to the size of 50-60 mm3 (by volume), mice were randomized into groups and treated daily for 4-8 weeks by subcutaneous administration of 5 μg of GHRH antagonists MIA-602 or AVR-compounds (2-10 μg as indicated), or vehicle solutions (0.1% DMSO in 10% 1,2-propanediol) respectively. Tumor sizes were measured weekly.
Statistical analysis. One-way ANOVA followed by Bonferroni comparison were performed. Data are expressed as Mean±SEM. To determine statistical significance between animal groups, two-tailed Student's t-test was conducted. Differences were considered significant when p<0.05.
Results. […] FIG. 1A-N represents in vivo inhibition of tumor growth during the treatment with GHRH antagonist MIA-602 and selected AVR antagonists in nude mice xenografted with various human tumors including pancreatic cancer PANC-1 (FIG. 1A) and CFPAC-1 (FIG. 1I); lung cancer HCC827 (FIGS. 1B, C) and H460 (FIG. 1H); stomach cancer N87 (FIGS. 1D-F); colon cancer HT-29 (FIG. 1G); breast cancer MX-1 and HCC-1806 (FIGS. 1J, K); ovarian cancer SK-OV-3 and OVACAR-3 (FIGS. 1 L, M) and prostate cancer PC3 (FIG. 1N). See also Table 5.

SMILES: CCCC[C@H](NC(=O)[C@@H](NC(=O)[C@H](CC(=O)O)NC(=O)[C@H](CCC(N)=O)NC(=O)[C@H](CC(C)C)NC(=O)[C@H](CC(C)C)NC(=O)[C@H](CCCCN)NC(=O)[C@H](CCCNC(=N)N)NC(=O)[C@H](C)NC(=O)[C@H](CO)NC(=O)[C@H](CC(C)C)NC(=O)[C@H](CCC(N)=O)NC(=O)[C@H](CC)NC(=O)[C@H](CC(C)C)NC(=O)[C@@H](NC(=O)[C@H](CCCCN)NC(=O)[C@H](CCCNC(=N)N)NC(=O)[C@H](Cc1ccc(OC)cc1)NC(=O)[C@H](CCCCNC(=N)N)NC(=O)[C@H](C)NC(=O)[C@@H](NC(=O)[C@H](Cc1c(F)c(F)c(F)c(F)c1F)NC(=O)[C@@H](NC(=O)[C@H](C)NC(=O)[C@H](CC(=O)O)NC(=O)[C@@H](CCCNC(=N)N)NC(=O)[C@H](Cc1ccc(O)cc1)NC(=O)CCCCCCCCCCCNC(=O)Cc1c(F)c(F)c(F)c(F)c1F)[C@@H](C)CC)[C@@H](C)O)C(C)C)[C@@H](C)CC)C(=O)N[C@H](CCCNC(=N)N)C(=O)N[C@@H](CCCCNC(=N)N)C(=O)NCCCCCCCCCCCC(N)=O [AVR-352, 5FPhAC-Ada-Tyr-DArg-Asp-Ala-Ile-5FPhe-Thr-Ala-Har-Tyr(Me)-Arg-Lys-Val-Leu-Abu-Gln-Leu-Ser-Ala-Arg-Lys-Leu-Leu-Gln-Asp-Ile-Nle-DArg-Har-Ada-NH2] ({Phenylacetyl(2,3,4,5,6-F5)-12Ado}-Y[dR]DAI[Phe(F5)]TA[hArg]Y(Me)RKVL[Abu]QLSARKLLQDI[Nle][dR][hArg][12Ado]-NH2)
- In vitro relative inhibitory potency in comparison to MIA-602, NCI-N87 [1]: 1.809
- In vitro relative inhibitory potency in comparison to MIA-602, HT-29 (HT-29 colon cancer cells): 1.197
- Tumor Growth % [2]: 371.7%
- % Inhibition [2]: 71.6%

SMILES: CCCC[C@H](NC(=O)[C@@H](NC(=O)[C@H](CC(=O)O)NC(=O)[C@H](CCC(N)=O)NC(=O)[C@H](CC(C)C)NC(=O)[C@H](CC(C)C)NC(=O)[C@H](CCCN)NC(=O)[C@H](Cc1c[nH]cn1)NC(=O)[C@H](C)NC(=O)[C@H](CO)NC(=O)[C@H](CC(C)C)NC(=O)[C@H](CCC(N)=O)NC(=O)[C@H](CC)NC(=O)[C@H](CC(C)C)NC(=O)[C@@H](NC(=O)[C@H](CCCN)NC(=O)[C@H](Cc1c[nH]cn1)NC(=O)[C@H](Cc1ccc(OC)cc1)NC(=O)[C@H](CCCCNC(=N)N)NC(=O)[C@H](C)NC(=O)[C@@H](NC(=O)[C@H](Cc1c(F)c(F)c(F)c(F)c1F)NC(=O)[C@@H](NC(=O)[C@H](C)NC(=O)[C@H](CC(=O)O)NC(=O)[C@@H](CCCNC(=N)N)NC(=O)[C@H](Cc1ccc(O)cc1)NC(=O)CCCCCCCCCCCNC(=O)Cc1c(F)c(F)c(F)c(F)c1F)[C@@H](C)CC)[C@@H](C)O)C(C)C)[C@@H](C)CC)C(=O)N[C@H](CCCNC(=N)N)C(=O)N[C@@H](CCCCNC(=N)N)C(=O)NCCCCCCCCCCCC(N)=O [AVR-553, 5FPhAC-Ada-Tyr-DArg-Asp-Ala-Ile-5FPhe-Thr-Ala-Har-Tyr(Me)-His-Orn-Val-Leu-Abu-Gln-Leu-Ser-Ala-His-Orn-Leu-Leu-Gln-Asp-Ile-Nle-DArg-Har-Ada-NH2] ({Phenylacetyl(2,3,4,5,6-F5)-12Ado}-Y[dR]DAI[Phe(F5)]TA[hArg]Y(Me)H[Orn]VL[Abu]QLSAH[Orn]LLQDI[Nle][dR][hArg][12Ado]-NH2)
- In vitro relative inhibitory potency in comparison to MIA-602, NCI-N87 [1]: 1.26
- Tumor Growth % [2]: 1132.0%
- % Inhibition [2]: 13.7%

SMILES: CCCC[C@H](NC(=O)[C@@H](NC(=O)[C@H](CC(=O)O)NC(=O)[C@H](CCC(N)=O)NC(=O)[C@H](CC(C)C)NC(=O)[C@H](CC(C)C)NC(=O)[C@H](CCCCN)NC(=O)[C@H](CCCNC(=N)N)NC(=O)[C@H](C)NC(=O)[C@H](CO)NC(=O)[C@H](CC(C)C)NC(=O)[C@H](CCC(N)=O)NC(=O)[C@H](CC)NC(=O)[C@H](CC(C)C)NC(=O)[C@@H](NC(=O)[C@H](CCCCN)NC(=O)[C@H](CCCNC(=N)N)NC(=O)[C@H](Cc1ccc(OC)cc1)NC(=O)[C@H](CCCCNC(=N)N)NC(=O)[C@H](CC(N)=O)NC(=O)[C@@H](NC(=O)[C@H](Cc1ccc(Cl)cc1)NC(=O)[C@@H](NC(=O)[C@H](C)NC(=O)[C@H](CC(=O)O)NC(=O)[C@@H](CCCNC(=N)N)NC(=O)[C@H](Cc1ccc(O)cc1)NC(=O)CCCCCCCCCCCNC(=O)Cc1c(F)c(F)c(F)c(F)c1F)[C@@H](C)CC)[C@@H](C)O)C(C)C)[C@@H](C)CC)C(=O)N[C@H](CCCNC(=N)N)C(=O)N[C@@H](CCCCNC(=N)N)C(=O)NCCCCCCCCCCCC(N)=O [AVR-333, 5FPhAC-Ada-Tyr-DArg-Asp-Ala-Ile-Cpa-Thr-Asn-Har-Tyr(Me)-Arg-Lys-Val-Leu-Abu-Gln-Leu-Ser-Ala-Arg-Lys-Leu-Leu-Gln-Asp-Ile-Nle-DArg-Har-Ada-NH2] ({Phenylacetyl(2,3,4,5,6-F5)-12Ado}-Y[dR]DAI[Phe(4-Cl)]TN[hArg]Y(Me)RKVL[Abu]QLSARKLLQDI[Nle][dR][hArg][12Ado]-NH2)
- In vitro relative inhibitory potency in comparison to MIA-602, NCI-N87 [1]: 1.4
- Tumor Growth % [2]: 407.5%
- % Inhibition [2]: 68.9%

SMILES: CCCC[C@H](NC(=O)[C@@H](NC(=O)[C@H](CC(=O)O)NC(=O)[C@H](CCC(N)=O)NC(=O)[C@H](CC(C)C)NC(=O)[C@H](CC(C)C)NC(=O)[C@H](CCCCN)NC(=O)[C@H](CCCNC(=N)N)NC(=O)[C@H](C)NC(=O)[C@H](CO)NC(=O)[C@H](CC(C)C)NC(=O)[C@H](CCC(N)=O)NC(=O)[C@H](CC)NC(=O)[C@H](CC(C)C)NC(=O)[C@@H](NC(=O)[C@H](CCCCN)NC(=O)[C@H](CCCNC(=N)N)NC(=O)[C@H](Cc1c(F)c(F)c(F)c(F)c1F)NC(=O)[C@H](CCCCNC(=N)N)NC(=O)[C@H](C)NC(=O)[C@@H](NC(=O)[C@H](Cc1ccc(Cl)cc1)NC(=O)[C@@H](NC(=O)[C@H](C)NC(=O)[C@H](CC(=O)O)NC(=O)[C@@H](CCCNC(=N)N)NC(=O)[C@H](Cc1ccc(O)cc1)NC(=O)CCCCCCCCCCCNC(=O)Cc1c(F)c(F)c(F)c(F)c1F)[C@@H](C)CC)[C@@H](C)O)C(C)C)[C@@H](C)CC)C(=O)N[C@H](CCCNC(=N)N)C(=O)N[C@@H](CCCCNC(=N)N)C(=O)NCCCCCCCCCCCC(=O)NC [AVR-354] ({Phenylacetyl(2,3,4,5,6-F5)-12Ado}-Y[dR]DAI[Phe(4-Cl)]TA[hArg][Phe(F5)]RKVL[Abu]QLSARKLLQDI[Nle][dR][hArg][12Ado]-NHMe)
- In vitro relative inhibitory potency in comparison to MIA-602, HT-29 (HT-29 colon cancer cells): 1.403
